Some test systems named below: SK-OV-3 ovarian; HOP-92 NSCLC; HCT-15 colon; 786-0 renal; A549 NSCLC; HL-60(TB) leukemia; OVCAR-5 ovarian; SN12C renal; MDA-MB-231 breast; MDA-MB-435.
What all share (experiment): NCI anticancer screen, dose series, 48 h

The structures appear in SMILES notation.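 Assay format: 96-well plates, 48-hour exposure. Here, GI50 denotes the concentration required for 50% inhibition of growth. The concentration for full growth arrest is given as TGI.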 Some results are limits rather than exact numbers.

With `Cc1nc2sc(C(=O)Nc3cccc(Cl)c3C)c(N)c2cc1C(O)c1ccccc1` (stereo not given), the GI50 in the assay with SK-OV-3 ovarian was 0.0697 µM; in the assay on HOP-92 NSCLC, 2.31 µM; in the assay on HCT-15 colon, 0.033 µM; in the assay on 786-0 renal it was 0.0667 µM; in the assay with A549 NSCLC, 0.0614 µM; in the assay on HL-60(TB) leukemia it was 0.0289 µM. The GI50 with OVCAR-5 ovarian was 0.14 µM; with SN12C renal, 0.067 µM; with MDA-MB-231 breast it was 0.0834 µM. The TGI is 33.4 µM in the assay with SK-OV-3 ovarian; 14.2 µM with HOP-92 NSCLC; 10.5 µM with HCT-15 colon; 9.51 µM in the assay on 786-0 renal; greater than 50.1 µM with A549 NSCLC; 0.133 µM in the assay with HL-60(TB) leukemia. The TGI is 46.5 µM in the assay on OVCAR-5 ovarian, 6.73 µM in the assay with SN12C renal and 6.95 µM in the assay on MDA-MB-231 breast.
As for `COc1ccc(/C=C\c2cc(OC)c(OC)c(OC)c2)cc1N/C=C\C(=O)c1c[nH]c2ccccc12`, the GI50 with SK-OV-3 ovarian was less than 0.01 µM; in the assay on HOP-92 NSCLC, 0.0137 µM; in the assay with HCT-15 colon, less than 0.01 µM; in the assay on 786-0 renal it was less than 0.01 µM; in the assay with A549 NSCLC, less than 0.01 µM; in the assay on OVCAR-5 ovarian, less than 0.01 µM. Besides, the GI50 with SN12C renal was 0.0224 µM; in the assay with MDA-MB-231 breast it was less than 0.01 µM. Moreover, the TGI was greater than 100 µM in the assay on SK-OV-3 ovarian; 3.64 µM in the assay with HOP-92 NSCLC; greater than 100 µM in the assay with HCT-15 colon; greater than 100 µM in the assay with 786-0 renal; greater than 100 µM in the assay with A549 NSCLC; greater than 100 µM in the assay with OVCAR-5 ovarian. Further, the TGI with SN12C renal was greater than 100 µM; in the assay on MDA-MB-231 breast it was 94.4 µM.
For the compound `Cc1cc(O)cc(-c2nn(C)cc2-c2cc(N3CCOCC3)nc(-c3cccnc3)n2)c1`, the GI50 with SK-OV-3 ovarian is 6.83 µM; with HOP-92 NSCLC, 1.66 µM; in the assay with HCT-15 colon, 2.63 µM; with 786-0 renal, 2.52 µM; in the assay on A549 NSCLC it was 6.54 µM; in the assay on HL-60(TB) leukemia, 2.81 µM. Moreover, the GI50 in the assay with OVCAR-5 ovarian is 12.2 µM; in the assay with SN12C renal it was 5.51 µM; with MDA-MB-231 breast, 5.82 µM. Also, the TGI is 43.7 µM with SK-OV-3 ovarian; 8.64 µM with HOP-92 NSCLC; 23.4 µM in the assay on HCT-15 colon; 11.6 µM in the assay with 786-0 renal; greater than 100 µM with A549 NSCLC; 20.2 µM in the assay with HL-60(TB) leukemia. Further, the TGI was greater than 100 µM in the assay on OVCAR-5 ovarian, greater than 100 µM in the assay on SN12C renal and 38 µM in the assay on MDA-MB-231 breast.
Regarding `Cc1ccc(Nn2c(SCC(=O)Nc3nc(-c4ccccc4)cs3)nc(C)c2C)cc1`, the GI50 was 10.6 µM in the assay with SK-OV-3 ovarian; 5.17 µM with HCT-15 colon; 4.41 µM with 786-0 renal; 3.03 µM in the assay with A549 NSCLC; 4.64 µM with HL-60(TB) leukemia; 2.66 µM in the assay on MDA-MB-435. Further, the GI50 in the assay on OVCAR-5 ovarian is 17.2 µM; in the assay with SN12C renal it was 3.2 µM; in the assay on MDA-MB-231 breast, 3.34 µM. Besides, the TGI in the assay on SK-OV-3 ovarian was greater than 100 µM; in the assay on HCT-15 colon it was greater than 100 µM; in the assay on 786-0 renal it was greater than 100 µM; in the assay with A549 NSCLC, greater than 100 µM; in the assay with HL-60(TB) leukemia, 39.1 µM; with MDA-MB-435, 9.54 µM. The TGI in the assay with OVCAR-5 ovarian was greater than 100 µM; in the assay with SN12C renal, 14.2 µM; in the assay with MDA-MB-231 breast it was greater than 100 µM.
With `O=C1c2ccccc2-c2c1c1ccc3ccccc3c1n2-c1ccccc1`, the GI50 in the assay on SK-OV-3 ovarian was 26.2 µM; in the assay on HOP-92 NSCLC it was 16 µM; with HCT-15 colon, greater than 100 µM; with 786-0 renal, 25.3 µM; in the assay on A549 NSCLC, 36.5 µM; with MDA-MB-435 it was 97.9 µM. Besides, the GI50 in the assay with OVCAR-5 ovarian is 29.2 µM; in the assay on SN12C renal, 20.5 µM; in the assay on MDA-MB-231 breast, 22.3 µM. For the same compound, the TGI was 54.1 µM with SK-OV-3 ovarian; 52.1 µM in the assay with HOP-92 NSCLC; greater than 100 µM with HCT-15 colon; 53.9 µM in the assay with 786-0 renal; 93.5 µM in the assay on A549 NSCLC; greater than 100 µM with MDA-MB-435. The TGI with OVCAR-5 ovarian was greater than 100 µM; in the assay on SN12C renal it was 50 µM; with MDA-MB-231 breast, 47.3 µM.
Regarding `COc1ccc(C(=O)c2cc(C)c(OC)c(C)c2)c(OC)c1OC(=O)C(Cl)Cl`, the GI50 in the assay with SK-OV-3 ovarian was 0.163 µM; in the assay on HOP-92 NSCLC, 0.216 µM; in the assay with HCT-15 colon it was 0.0339 µM; in the assay with 786-0 renal, 0.396 µM; with A549 NSCLC, 0.361 µM; in the assay with HL-60(TB) leukemia, 0.0251 µM. For the same compound, the GI50 was 5.51 µM in the assay with OVCAR-5 ovarian, 0.0956 µM with SN12C renal and 0.075 µM in the assay with MDA-MB-231 breast. Moreover, the TGI in the assay with SK-OV-3 ovarian was greater than 100 µM; in the assay with HOP-92 NSCLC, greater than 92.9 µM; in the assay with HCT-15 colon, greater than 100 µM; in the assay on 786-0 renal it was greater than 100 µM; in the assay on A549 NSCLC, greater than 100 µM; with HL-60(TB) leukemia it was 0.0719 µM. Besides, the TGI in the assay with OVCAR-5 ovarian, in the assay with SN12C renal and with MDA-MB-231 breast was greater than 100 µM in each case.
Regarding `NC(=S)N/N=C1/C(=O)N(c2ccccc2)C(=O)C1C(=O)Nc1ccccc1` (stereo not given), the TGI in the assay on SK-OV-3 ovarian, with HOP-92 NSCLC, in the assay with HCT-15 colon, with 786-0 renal, in the assay on A549 NSCLC and with HL-60(TB) leukemia was greater than 100 µM each time. In addition, the TGI in the assay on OVCAR-5 ovarian and with SN12C renal was greater than 100 µM in each case.
With `CC(NNC(=S)N1CCN(c2ccccn2)CC1)c1cccc[n+]1[O-]` (stereo not given), the TGI is greater than 100 µM in the assay with HOP-92 NSCLC; greater than 100 µM in the assay on HCT-15 colon; greater than 100 µM with 786-0 renal; greater than 100 µM with A549 NSCLC; 16.7 µM with HL-60(TB) leukemia; greater than 100 µM in the assay on MDA-MB-435. Besides, the TGI with SN12C renal and in the assay with MDA-MB-231 breast was greater than 100 µM throughout.
For the compound `COc1ccc(-c2cncn2-c2ccc(-c3nc4cc(OC)c(OC)c(OC)c4s3)cc2)cc1N`, the GI50 was greater than 100 µM in the assay on SK-OV-3 ovarian; 4.02 µM in the assay with HCT-15 colon; 5.73 µM in the assay on 786-0 renal; 5.77 µM in the assay on A549 NSCLC; 2.2 µM in the assay with HL-60(TB) leukemia; 3.13 µM with MDA-MB-435. Besides, the GI50 was greater than 100 µM in the assay with OVCAR-5 ovarian, 9.44 µM in the assay with SN12C renal and greater than 100 µM in the assay on MDA-MB-231 breast. The TGI is greater than 100 µM in the assay with SK-OV-3 ovarian; greater than 100 µM in the assay with HCT-15 colon; greater than 100 µM in the assay with 786-0 renal; greater than 100 µM in the assay with A549 NSCLC; 9.55 µM in the assay with HL-60(TB) leukemia; greater than 100 µM with MDA-MB-435. In addition, the TGI in the assay with OVCAR-5 ovarian, with SN12C renal and in the assay on MDA-MB-231 breast was greater than 100 µM in each case.

The values above are taken from PubChem BioAssay (NCI).
